Assay results published in ChEMBL document CHEMBL1143547, “Fluorescence resonance energy transfer studies of aminoglycoside binding to a T box antiterminator RNA” (Bioorg Med Chem Lett, 2005).

Tests used:
Bacillus subtilis = test: Binding dissociation constant towards 3'-Fl-AM1A-Rhd in Bacillus subtilis tyrS; type: functional
Nucleic Acid = test: Maximum Frel value for binding to 3'-Fl-AM1A-Rhd in Bacillus subtilis tyr

Compound | Kd (Bacillus subtilis) | Frel (Nucleic Acid)
NC[C@@H]1O[C@@H](O[C@H]2[C@H](O)[C@@H](O[C@H]3O[C@H](CO)[C@@H](O)[C@H](N)[C@H]3O)[C@H](N)C[C@@H]2N)[C@@H](O)[C@H](O)[C@H]1O [KANAMYCIN A] | 210 µM | –
NC[C@@H]1O[C@H](O[C@H]2[C@@H](O)[C@H](O[C@@H]3[C@@H](O)[C@H](N)C[C@H](N)[C@H]3O[C@H]3O[C@H](CN)[C@@H](O)[C@H](O)[C@H]3N)O[C@@H]2CO)[C@H](N)[C@@H](O)[C@@H]1O [FRAMYCETIN] | 8.5 µM | 0.46
CN[C@@H]1[C@@H](O)[C@@H](O[C@@H]2[C@@H](O)[C@H](O[C@H]3O[C@H]([C@@H](C)NC)CC[C@H]3N)[C@@H](N)C[C@H]2N)OC[C@]1(C)O [GENTAMICIN C1] | 120 µM | 0.8
NC[C@H]1O[C@H](O[C@H]2[C@H](O)[C@@H](O[C@H]3O[C@H](CO)[C@@H](O)[C@H](N)[C@H]3O)[C@H](N)C[C@@H]2N)[C@H](N)[C@@H](O)[C@@H]1O [BEKANAMYCIN] | 150 µM | 0.38
[H]/N=C(/N)N[C@H]1[C@H](O)[C@@H](O)[C@H](O[C@@H]2O[C@@H](C)[C@](O)(C=O)[C@H]2O[C@@H]2O[C@@H](CO)[C@H](O)[C@@H](O)[C@@H]2NC)[C@@H](N/C(N)=N\[H])[C@@H]1O (stereo in doubt) [STREPTOMYCIN] | 790 µM | 0.34
CN[C@@H]1[C@@H](O)[C@@H](O[C@@H]2[C@@H](O)[C@H](O[C@H]3O[C@H](C(C)N)CC[C@H]3N)[C@@H](N)C[C@H]2N)OC[C@]1(C)O (stereo partly drawn) [GENTAMICIN C2] | 120 µM | 0.8
NC[C@@H]1O[C@H](O[C@H]2[C@@H](O)[C@H](O[C@@H]3[C@@H](O)[C@H](N)C[C@H](N)[C@H]3O[C@H]3O[C@H](CO)[C@@H](O)[C@H](O)[C@H]3N)O[C@@H]2CO)[C@H](N)[C@@H](O)[C@@H]1O [PAROMOMYCIN] | 50 µM | 0.41
NCCC(O)C(=O)N[C@@H]1C[C@H](N)[C@@H](O[C@H]2O[C@H](CN)[C@@H](O)[C@H](O)[C@H]2O)[C@H](O)[C@H]1O[C@H]1O[C@H](CO)[C@@H](O)[C@H](N)[C@H]1O (single isomer, unassigned) [AMIKACIN] | 760 µM | 0.29
NC[C@H]1O[C@H](O[C@H]2[C@H](O)[C@@H](O[C@H]3O[C@H](CO)[C@@H](O)[C@H](N)[C@H]3O)[C@H](N)C[C@@H]2N)[C@H](O)[C@@H](O)[C@@H]1O [KANAMYCIN A] | – | 0.21
NC[C@H]1O[C@H](O[C@H]2[C@H](O)[C@@H](O[C@H]3O[C@H](CO)[C@@H](O)[C@H](N)[C@H]3O)[C@H](N)C[C@@H]2N)[C@H](N)C[C@@H]1O [TOBRAMYCIN] | 38 µM | 0.33
